We go through two compounds from patent US20230293438A1, “INJECTABLE DRUG-RELEASING MICROPOROUS ANNEALED PARTICLE SCAFFOLDS FOR TREATING MYOCARDIAL INFARCTION” (THE REGENTS OF THE UNIVERSITY OF CALIFORNIA, priority 2020, published 2023).

For assay [1], the system named is neonatal rat cardiomyocytes. The assay can be described thus: Cardiomyocyte viability (live/dead assay). The class given is cell-based. Conditions: 120 h, after 5 days in vitro culture, drugs in medium (20 µM), control cells 25 %. How it is done:
(§1) Cell isolation: Primary neonatal rat cardiomyocytes and fibroblasts were isolated from the hearts of 1-2 day old Sprague-Dawley rat pups as described previously with minor modifications. Briefly, the cardiac tissue was minced and digested with 80 units/mL collagenase II (Worthington) and 0.8 mg/mL pancreatin (Sigma) at 37° C. in a water bath. Neonatal calf serum (NCS) was applied to inactivate enzymatic activity in the digested cell mixture. The cell solution was filtered through 100 µm mesh and centrifuged at 2200 rpm for 3 minutes. The cell pellets were suspended in 1 mL NCS and further separated by Percoll density gradient centrifugation. […]
Cell culture and evaluation of drug effects in vitro: The drug effects on cardiomyocyte viability and proliferation were evaluated. Isolated cardiomyocytes were calculated and seeded on 0.1% gelatin-coated twenty-four well tissue culture plate with a density of 20, 000 cells/cm^2, and cultured at 37° C. in a humidified, 5% CO2 incubator overnight in DMEM/Medium 199 (4/1) containing 10% FBS, 1% NEAAs and 1% P/S. The next day, the culture medium was replaced by fresh medium containing 20 µM F, R or their combination. […] A live/dead kit (Invitrogen) was for cell viability assay, and images were taken using inverted microscope fluorescence microscopy (Zeiss Axio Observer Z1) to determine the cell numbers and the percentage of dead cells. […]

The subject of assay [2] is Human umbilical vein endothelial cells (HUVECs). In words: Endothelial cell proliferation (MTS assay). The assay is classed as cell-based. As for the experimental part: The drug effects on EC proliferation and network formation were evaluated. Human umbilical vein endothelial cells (HUVECs) were seeded on 0.1% gelatin-coated 24-well plates with a density of 5, 000 cells/cm^2 and cultured overnight in DMEM containing 10% FBS and 1% P/S. On the next day, the culture medium was replaced by the fresh medium containing F and R at the determined concentrations and combinations, and the medium was changed every other day. MTS cell proliferation assay was performed on day 1, 3 and 5. In addition, the ECs network formation was examined on growth factor reduced Matrigel according to the manufacturer's instructions (cat# CB-40230C, Thermo Fisher Scientific). Briefly, 24-well plates were coated with Matrigel. ECs were digested and plated onto a layer of Matrigel at a density of 3×10^5 cells/well in M199 medium containing 1% FBS and […], with the addition of F and R. Vascular endothelial growth factor (VEGF, 20 ng/mL) was used as a positive control. After 16 hours of culture, cells were stained with calcein acetoxymethyl ester (calcein-AM) and observed with an inverted fluorescent microscope. The number of tubular structures, junctions and meshes were analyzed by Image J with the Angiogenesis Analyzer plugin (n = 4-6 per group).
In general terms: Tetrazolium assays rely on reduction of a dye to a coloured formazan, in cell work by metabolically active cells.

The subject of assay [3] is neonatal cardiac fibroblasts. The assay can be described thus: Cardiac fibroblast myo-differentiation (α-SMA / F-actin staining). The class given is cell-based, rat. Conditions: drugs in medium, day 5. As for the experimental part:
as §1, with “centrifugation. A two-layer density gradient was formed consisting of 40.5% Percoll (GE17-0891-01, Sigma) solution in the top layer and 58.5% Percoll solution in the bottom layer.” for “centrifugation.”
The drug effects on cardiac fibroblast proliferation and myo-differentiation were evaluated. Fibroblasts were seeded on twenty-four well tissue culture plate with a density of 5000 cells/cm^2 and cultured overnight in DMEM containing 10% FBS and 1% P/S. On the next day, the culture medium was replaced by the fresh medium containing F and R at the determined concentrations and combinations, and the medium was changed every other day. […]
(§2) The effects of drugs released from FR/NPs and FR/NPs-µGel particles 12 were evaluated using the methods mentioned above. […]

Assay [4] relates to Human umbilical vein endothelial cells (HUVECs). The assay can be described thus: Endothelial cell tubule network formation on Matrigel. The assay is classed as cell-based. Conditions: drugs in medium, 16 hours. As for the experimental part: The drug effects on EC proliferation and network formation were evaluated. Human umbilical vein endothelial cells (HUVECs) were seeded on 0.1% gelatin-coated 24-well plates with a density of 5, 000 cells/cm^2 and cultured overnight in DMEM containing 10% FBS and 1% P/S. On the next day, the culture medium was replaced by the fresh medium containing F and R at the determined concentrations and combinations, and the medium was changed every other day. MTS cell proliferation assay was performed on day 1, 3 and 5. In addition, the ECs network formation was examined on growth factor reduced Matrigel according to the manufacturer’s instructions (cat# CB-40230C, Thermo Fisher Scientific). Briefly, 24-well plates were coated with Matrigel. ECs were digested and plated onto a layer of Matrigel at a density of 3×10^5 cells/well in M199 medium containing 1% FBS and 1% P/S, with the addition of F and R. Vascular endothelial growth factor (VEGF, 20 ng/mL) was used as a positive control. After 16 hours of culture, cells were stained with calcein acetoxymethyl ester (calcein-AM) and observed with an inverted fluorescent microscope. The number of tubular structures, junctions and meshes were analyzed by Image J with the Angiogenesis Analyzer plugin (n = 4-6 per group).
as §2

Another assay relates to neonatal cardiomyocytes. In words: Cardiomyocyte proliferation (EdU assay). The class given is cell-based, rat. The settings on record: drugs in medium. How it is done: Cell isolation: Primary neonatal rat cardiomyocytes and fibroblasts were isolated from the hearts of 1-2 day old Sprague-Dawley rat pups as described previously with minor modifications. Briefly, the cardiac tissue was minced and digested with 80 units/mL collagenase II (Worthington) and 0.8 mg/mL pancreatin (Sigma) at 37° C. in a water bath. Neonatal calf serum (NCS) was applied to inactivate enzymatic activity in the digested cell mixture. The cell solution was filtered through 100 µm mesh and centrifuged at 2200 rpm for 3 minutes. The cell pellets were suspended in 1 mL NCS and further separated by Percoll density gradient centrifugation. […] Cell culture and evaluation of drug effects in vitro: The drug effects on cardiomyocyte viability and proliferation were evaluated. Isolated cardiomyocytes were calculated and seeded on 0.1% gelatin-coated twenty-four well tissue culture plate with a density of 20, 000 cells/cm^2, and cultured at 37° C. in a humidified, 5% CO2 incubator overnight in DMEM/Medium 199 (4/1) containing 10% FBS, 1% NEAAs and 1% P/S. […] A live/dead kit (Invitrogen) was for cell viability assay, and images were taken using inverted microscope fluorescence microscopy (Zeiss Axio Observer Z1) to determine the cell numbers and the percentage of dead cells. […]

In another assay the test system is cardiac fibroblasts. The assay can be described thus: Cardiac fibroblast proliferation (MTS assay). The class given is cell-based, rat. Conditions: drugs in medium. How it is done: Cell isolation: Primary neonatal rat cardiomyocytes and fibroblasts were isolated from the hearts of 1-2 day old Sprague-Dawley rat pups as described previously with minor modifications. Briefly, the cardiac tissue was minced and digested with 80 units/mL collagenase II (Worthington) and 0.8 mg/mL pancreatin (Sigma) at 37° C. in a water bath. Neonatal calf serum (NCS) was applied to inactivate enzymatic activity in the digested cell mixture. The cell solution was filtered through 100 µm mesh and centrifuged at 2200 rpm for 3 minutes. The cell pellets were suspended in 1 mL NCS and further separated by Percoll density gradient centrifugation. A two-layer density gradient was formed consisting of 40.5% Percoll (GE17-0891-01, Sigma) solution in the top layer and 58.5% Percoll solution in the bottom layer. The cell suspension was layered on top of the gradient and centrifuged at 3000 rpm at room temperature for 30 minutes. […] The drug effects on cardiac fibroblast proliferation and myo-differentiation were evaluated. Fibroblasts were seeded on twenty-four well tissue culture plate with a density of 5000 cells/cm^2 and cultured overnight in DMEM containing 10% FBS and 1% P/S. On the next day, the culture medium was replaced by the fresh medium containing F and R at the determined concentrations and combinations, and the medium was changed every other day. […]

In general, viability refers to the share of living cells, or the viability signal relative to a control. Take `C=C[C@@]1(C)CC(=O)[C@]2(O)[C@@]3(C)[C@@H](O)CCC(C)(C)[C@@H]3[C@H](O)[C@H](OC(C)=O)[C@@]2(C)O1` [F, Forskolin]: the viability at 20 µM in assay [1] amounted to 80%. Also, the “optimal concentration to enhance EC proliferation” value in assay [2] was found to be 20 µM.
As for `Cc1cccc(-c2n[nH]cc2-c2ccc3ncccc3n2)n1` [R, 2-(3-(6-Methylpyridine-2-yl)-1H-pyrazol-4-yl)-1,5-naphthyridine], in assay [3], the “myo-differentiation of cardiac fibroblasts” value is recorded as “could prevent myo-differentiation of cardiac fibroblasts”. Also, in assay [1], the viability at 20 µM worked out at 80%. Further, the EC network formation result in assay [4] was “not with R alone”. Further, the “proliferation of neonatal cardiomyocytes, times as many cells as the control” value in the assay on neonatal cardiomyocytes is given as “six”. Besides, in assay [2], the “optimal concentration to enhance EC proliferation” value is on record as 20 µM. In addition, the EC proliferation entry in assay [2] (drugs in medium) is “dose-dependent effects to enhance EC proliferation”. Moreover, the fibroblast proliferation result in the assay on cardiac fibroblasts is reported as “opposite inhibitory effects”.
